Assays:
human Factor XIa = human Factor XIa (Homo sapiens (Human), UniProt P03951); assay: Factor XIa Assay; assay type: biochemical; settings: purified human Factor XIa 40 pM, Z-Gly-Pro-Arg-AFC 100 μM, pH 7.4; read-out: FXIa Ki
Outline: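 Ki derived from the dependence of Vo/Vi on inhibitor concentration under a competitive-inhibition model, after pre-equilibration of enzyme and inhibitor. Reaction: 40 pM human FXIa, 100 μM Z-Gly-Pro-Arg-AFC, HEPES 50 mM pH 7.4 with NaCl, CaCl2 and PEG 8000; run at room temperature or 37° C.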

Human plasma kallikrein = Human plasma kallikrein (Homo sapiens (Human), UniProt P03952); assay: Kallikrein Assay; assay type: biochemical; settings: purified Human plasma kallikrein 0.5 nM, Acetyl-K-P-R-AFC, pH 7.4; Ki from IC50 by Cheng Prusoff
Description: The effectiveness of a compound of the present invention as an inhibitor of Kallikrein can be determined using a relevant purified serine protease, and an appropriate synthetic substrate. The rate of hydrolysis of the chromogenic or fluorogenic substrate by the relevant serine protease was measured both in the absence and presence of compounds of the present invention. Assays were conducted at room temperature or at 37° C. […] A decrease in the rate of fluorescence change in the presence of inhibitor is indicative of enzyme inhibition. Such methods are known to one skilled in the art. The results of this assay are expressed as the inhibitory constant, Ki.
Kallikrein determinations were made in 50 mM HEPES buffer at pH 7.4 containing 150 mM NaCl, 5 mM CaCl2, and 0.1% PEG 8000 (polyethylene glycol; Fisher Scientific). Determinations were made using purified Human plasma kallikrein at a final concentration of 0.5 nM (Enzyme Research Laboratories) and the synthetic substrate, Acetyl-K-P-R-AFC (Sigma #C6608) at a concentration of […].
Times required to achieve equilibration between enzyme and inhibitor were determined in control experiments. The reactions were performed under linear progress curve conditions and fluorescence increase measured at 405 Ex/510 Em nm. […] IC50 was determined by inflection point from a four parameter logistic curve fit. Ki was calculated using the Cheng Prusoff equation, Ki=IC50/(1+([S]/Km)).

Chain of Human plasma kallikrein (P03952 391-638): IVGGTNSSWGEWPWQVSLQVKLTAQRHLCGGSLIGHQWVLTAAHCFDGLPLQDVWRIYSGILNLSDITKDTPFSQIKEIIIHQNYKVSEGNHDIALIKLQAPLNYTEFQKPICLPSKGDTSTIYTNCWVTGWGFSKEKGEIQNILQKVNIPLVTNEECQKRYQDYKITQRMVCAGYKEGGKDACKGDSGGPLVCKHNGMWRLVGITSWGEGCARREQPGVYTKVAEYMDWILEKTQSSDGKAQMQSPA
Chain of Human plasma kallikrein (P03952 20-390 partner): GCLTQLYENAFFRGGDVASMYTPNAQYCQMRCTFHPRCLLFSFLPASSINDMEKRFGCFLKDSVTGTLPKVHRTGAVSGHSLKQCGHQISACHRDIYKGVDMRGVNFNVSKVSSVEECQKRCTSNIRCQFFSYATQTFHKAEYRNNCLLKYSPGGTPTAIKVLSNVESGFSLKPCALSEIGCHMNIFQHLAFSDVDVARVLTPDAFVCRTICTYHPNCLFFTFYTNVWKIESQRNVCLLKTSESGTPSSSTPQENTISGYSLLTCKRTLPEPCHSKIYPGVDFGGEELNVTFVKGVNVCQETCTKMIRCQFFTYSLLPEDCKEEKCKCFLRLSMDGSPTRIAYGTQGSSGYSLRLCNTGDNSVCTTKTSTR
Chain of human Factor XIa (P03951 388-625): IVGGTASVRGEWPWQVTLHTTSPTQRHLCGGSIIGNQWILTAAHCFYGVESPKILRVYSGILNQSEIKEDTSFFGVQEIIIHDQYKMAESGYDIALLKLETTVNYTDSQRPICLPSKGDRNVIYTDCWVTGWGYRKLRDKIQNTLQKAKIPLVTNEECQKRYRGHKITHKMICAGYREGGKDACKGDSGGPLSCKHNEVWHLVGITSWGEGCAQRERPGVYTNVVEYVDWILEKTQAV
Chain of human Factor XIa (P03951 19-387 partner): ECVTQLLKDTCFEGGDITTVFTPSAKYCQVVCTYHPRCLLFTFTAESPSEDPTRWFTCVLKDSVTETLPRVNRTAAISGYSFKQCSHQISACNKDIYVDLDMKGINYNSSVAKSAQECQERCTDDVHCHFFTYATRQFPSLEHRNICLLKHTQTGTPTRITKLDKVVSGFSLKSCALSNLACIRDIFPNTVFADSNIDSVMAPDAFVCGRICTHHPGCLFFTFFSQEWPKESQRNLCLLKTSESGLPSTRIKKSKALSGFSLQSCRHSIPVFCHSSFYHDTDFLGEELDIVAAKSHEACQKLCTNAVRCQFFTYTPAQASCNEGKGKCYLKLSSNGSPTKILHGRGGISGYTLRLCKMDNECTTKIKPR

Row | SMILES | Ki (human Factor XIa) [nM] | Ki (Human plasma kallikrein) [nM]
1 | COC(=O)Nc1ccc(C(=O)N[C@@H](CC2CC2(F)F)C(=O)N2CCC[C@@]3(C2)OC(=O)Nc2ccc(Cl)c(F)c23)cc1 (single isomer, unassigned) [Example 67A] | 11.6 | 2.9
2 | COC(=O)Nc1ccc(C(=O)N[C@@H](CC2CC2(F)F)C(=O)N2CCC[C@@]3(C2)OC(=O)Nc2ccc(Cl)c(F)c23)cc1 (single isomer, unassigned) [Example 67B] | 7.88 | 1.8
3 | COC(=O)Nc1ccc(C(=O)NC(C[C@@H]2CCCO2)C(=O)N2CCC[C@@]3(C2)OC(=O)Nc2ccc(Cl)c(F)c23)cc1 (single isomer, unassigned) [Example 116A] | 7.51 | 4.78
4 | COC(=O)Nc1ccc(C(=O)NC(C[C@H]2CCCO2)C(=O)N2CCC[C@@]3(C2)OC(=O)Nc2ccc(Cl)c(F)c23)cc1 (single isomer, unassigned) [Example 117A] | 18.7 | 10.6
5 | COC(=O)Nc1ccc(C(=O)N[C@@H](Cc2ccccc2)C(=O)N2CCC[C@@]3(C2)OC(=O)Nc2ccc(Cl)cc23)cc1 [Example 3b, methyl (4-(((S)-1-((R)-6-chloro-2-oxo-1,2-dihydrospiro[benzo[d][1,3]oxazine-4,3′-piperidin]-1′-yl)-1-oxo-3-phenylpropan-2-yl)carbamoyl)phenyl)carbamate] | 1.5 | 1.55
6 | COC(=O)Nc1ccc(C(=O)N[C@@H](Cc2ccccc2)C(=O)N2CC[C@@]3(C2)OC(=O)Nc2ccc(Cl)cc23)cc1 [Example 6, methyl (4-(((S)-1-((R)-6-chloro-2-oxo-1,2-dihydrospiro[benzo[d][1,3]oxazine-4,3′-pyrrolidin]-1′-yl)-1-oxo-3-phenylpropan-2-yl)carbamoyl)phenyl)carbamate] | 4.7 | 4.02
7 | COC(=O)Nc1ccc(C(=O)N[C@@H](Cc2ccccc2)C(=O)N2CC[C@@]3(C2)OC(=O)Nc2ccc(Cl)c(F)c23)cc1 [Example 7, methyl (4-(((S)-1-((R)-6-chloro-5-fluoro-2-oxo-1,2-dihydrospiro[benzo[d][1,3]oxazine-4,3′-pyrrolidin]-1′-yl)-1-oxo-3-phenylpropan-2-yl)carbamoyl)phenyl)carbamate] | 4.44 | 3.51
8 | COC(=O)Nc1ccc(C(=O)N[C@@H](Cc2ccccc2)C(=O)N2CCC[C@@]3(C2)OC(=O)Nc2ccc(F)cc23)cc1 [Example 8a, methyl (4-(((S)-1-((R)-6-fluoro-2-oxo-1,2-dihydrospiro[benzo[d][1,3]oxazine-4,3′-piperidin]-1′-yl)-1-oxo-3-phenylpropan-2-yl)carbamoyl)phenyl)carbamate] | 12.8 | 9.78
9 | COC(=O)Nc1ccc(C(=O)N[C@@H](Cc2ccccc2)C(=O)N2CCC[C@@]3(C2)OC(=O)Nc2ccc(OC)cc23)cc1 [Example 9, methyl (4-(((S)-1-((R)-6-methoxy-2-oxo-1,2-dihydrospiro[benzo[d][1,3]oxazine-4,3′-piperidin]-1′-yl)-1-oxo-3-phenylpropan-2-yl)carbamoyl)phenyl)carbamate] | 2 | 2.6
10 | COC(=O)Nc1ccc(C(=O)N[C@@H](Cc2ccccc2)C(=O)N2CCCC3(C2)OC(=O)Nc2ccc(Cl)c(F)c23)cc1 (stereo partly drawn) [Example 13, methyl (4-(((2S)-1-(6-chloro-5-fluoro-2-oxo-1,2-dihydrospiro[benzo[d][1,3]oxazine-4,3′-piperidin]-1′-yl)-1-oxo-3-phenylpropan-2-yl)carbamoyl)phenyl)carbamate] | 1.8 | 1.4
11 | COC(=O)Nc1ccc(C(=O)N[C@@H](CC2(OC)CC2)C(=O)N2CCC[C@@]3(C2)OC(=O)Nc2ccc(Cl)c(F)c23)cc1 [Example 115, methyl (4-(((S)-1-((R)-6-chloro-5-fluoro-2-oxo-1,2-dihydrospiro[benzo[d][1,3]oxazine-4,3′-piperidin]-1′-yl)-3-(1-methoxycyclopropyl)-1-oxopropan-2-yl)carbamoyl)phenyl)carbamate] | – | 0.6
12 | COC(=O)Nc1ccc(C(=O)N[C@@H](C[C@H](C)OC)C(=O)N2CCC[C@@]3(C2)OC(=O)Nc2ccc(Cl)c(F)c23)cc1 [Example 118A, methyl (4-(((2S,4S)-1-((R)-6-chloro-5-fluoro-2-oxo-1,2-dihydrospiro[benzo[d][1,3]oxazine-4,3′-piperidin]-1′-yl)-4-methoxy-1-oxopentan-2-yl)carbamoyl)phenyl)carbamate] | – | 1.79
13 | COC(=O)Nc1ccc(C(=O)N[C@@H](C[C@@H](C)OC)C(=O)N2CCC[C@@]3(C2)OC(=O)Nc2ccc(Cl)c(F)c23)cc1 [Example 118B, methyl (4-(((2S,4R)-1-((R)-6-chloro-5-fluoro-2-oxo-1,2-dihydrospiro[benzo[d][1,3]oxazine-4,3′-piperidin]-1′-yl)-4-methoxy-1-oxopentan-2-yl)carbamoyl)phenyl)carbamate] | – | 1.06
14 | O=C(Nc1ccc(C(=O)N[C@@H](Cc2cccc(F)c2)C(=O)N2CCC[C@@]3(C2)OC(=O)Nc2ccc(Cl)c(F)c23)cc1)OCCP(=O)(O)O [Example 271, (2-(((4-(((S)-1-((R)-6-chloro-5-fluoro-2-oxo-1,2-dihydrospiro[benzo[d][1,3]oxazine-4,3′-piperidin]-1′-yl)-3-(3-fluorophenyl)-1-oxopropan-2-yl)carbamoyl)phenyl)carbamoyl)oxy)ethyl)phosphonic acid] | – | 0.6
15 | CC(=O)Nc1ccc(S(=O)(=O)N[C@@H](Cc2ccccc2)C(=O)N2CCC3(C2)OC(=O)Nc2ccc(Cl)cc23)cc1 (stereo partly drawn) [Example 284, N-(4-(N-((2S)-1-(6-chloro-2-oxo-1,2-dihydrospiro[benzo[d][1,3]oxazine-4,3′-pyrrolidin]-1′-yl)-1-oxo-3-phenylpropan-2-yl)sulfamoyl)phenyl)acetamide] | ≥ 5000 | –
16 | O=C1Nc2ccc(Cl)cc2C2(CCN(C(=O)[C@H](Cc3ccccc3)NS(=O)(=O)c3ccc4oc(O)nc4c3)C2)O1 (stereo partly drawn) [Example 285, N-((2S)-1-(6-chloro-2-oxo-1,2-dihydrospiro[benzo[d][1,3]oxazine-4,3′-pyrrolidin]-1′-yl)-1-oxo-3-phenylpropan-2-yl)-2-hydroxybenzo[d]oxazole-5-sulfonamide] | ≥ 5000 | –
17 | CO[C@@H]1C[C@@H](C(=O)N2CC[C@@]3(C2)OC(=O)Nc2ccc(Cl)cc23)N(C(=O)c2ccc3nc(N)sc3c2)C1 [Example 290, (R)-1′-((2S,4R)-1-(2-aminobenzo[d]thiazole-6-carbonyl)-4-methoxypyrrolidine-2-carbonyl)-6-chlorospiro[benzo[d][1,3]oxazine-4,3′-pyrrolidin]-2(1H)-one] | 2400 | –
18 | Nc1nc2ccc(C(=O)N3C[C@H](F)C[C@H]3C(=O)N3CC[C@@]4(C3)OC(=O)Nc3ccc(Cl)cc34)cc2s1 [Example 291, (R)-1′-((2S,4R)-1-(2-aminobenzo[d]thiazole-6-carbonyl)-4-fluoropyrrolidine-2-carbonyl)-6-chlorospiro[benzo[d][1,3]oxazine-4,3′-pyrrolidin]-2(1H)-one] | 4620 | –
19 | Nc1nc2ccc(C(=O)N3C[C@H](Cc4ccccc4)C[C@H]3C(=O)N3CC[C@@]4(C3)OC(=O)Nc3ccc(Cl)cc34)cc2s1 [Example 292, (R)-1′-((2S,4R)-1-(2-aminobenzo[d]thiazole-6-carbonyl)-4-benzylpyrrolidine-2-carbonyl)-6-chlorospiro[benzo[d][1,3]oxazine-4,3′-pyrrolidin]-2(1H)-one] | 1870 | –
20 | O=C1Nc2ccc(Cl)cc2[C@@]2(CCN(C(=O)[C@H](Cc3ccccc3)Nc3ncc(C(=O)O)cc3F)C2)O1 [Example 294, 6-(((S)-1-((R)-6-chloro-2-oxo-1,2-dihydrospiro[benzo[d][1,3]oxazine-4,3′-pyrrolidin]-1′-yl)-1-oxo-3-phenylpropan-2-yl)amino)-5-fluoronicotinic acid] | 10000 | –
21 | O=C1Nc2ccc(Cl)cc2[C@@]2(CCCN(C(=O)[C@H](Cc3ccccc3)Nc3ccc(-c4ccc(O)nc4)cn3)C2)O1 [Example 295, (R)-6-chloro-1′-((6′-hydroxy-[3,3′-bipyridin]-6-yl)-L-phenylalanyl)spiro[benzo[d][1,3]oxazine-4,3′-piperidin]-2(1H)-one] | 10000 | –
22 | O=C1Nc2ccc(Cl)cc2[C@@]2(CCCN(C(=O)[C@H](Cc3ccccc3)Nc3ccc(-c4cc[nH]n4)cn3)C2)O1 [Example 296, (R)-1′-((5-(1H-pyrazol-3-yl)pyridin-2-yl)-L-phenylalanyl)-6-chlorospiro[benzo[d][1,3]oxazine-4,3′-piperidin]-2(1H)-one] | 10000 | –
23 | O=C1Nc2ccc(Cl)cc2[C@@]2(CCCN(C(=O)[C@H](Cc3ccccc3)Nc3ccc(-c4cccc(C(=O)O)c4)cn3)C2)O1 [Example 297, 3-(6-(((S)-1-((R)-6-chloro-2-oxo-1,2-dihydrospiro[benzo[d][1,3]oxazine-4,3′-piperidin]-1′-yl)-1-oxo-3-phenylpropan-2-yl)amino)pyridin-3-yl)benzoic acid] | 10000 | –
